Tests used:
[1] = system: JR-FL and KB9 Env chimeras; assay: Viral infection assay, JR-FL/KB9 Env chimeras; assay type: cell-based, HIV-1
Method: Production of recombinant HIV-1 expressing luciferase. […] After 48 hours, the supernatant was collected, buffered with 50 mM Hepes pH 7.4 (final concentration) and centrifuged for 5 minutes at 750×g and 4° C. The virus-containing supernatant was used directly or frozen at −80° C.
Viral infection assay. Each test compound was serially diluted in DMSO in a 96-well B&W isoplate (PerkinElmer, Boston, Mass.) using an HP D300 Digital Dispenser, to a final volume of 450 nl. DMSO was used as a control. Viruses pseudotyped with a specific Env were added to each well and incubated briefly at room temperature. Cf2Th-CD4/CCR5 cells were detached with StemPro Accutase Cell Dissociation Reagent (Invitrogen, cat #A11105-01), washed once, and 5000 cells were added to each well. […] Following incubation, the medium was aspirated and cells were lysed with 30 μl of Passive Lysis Buffer (Promega, cat #E1941). The activity of the firefly luciferase, which was used as a reporter protein in the system, was measured with a Centro LB 960 luminometer (Berthold Technologies, Oak Ridge, Tenn.). One hundred microliters of assay buffer (15 mM MgSO4, 15 mM KH2PO4/K2HPO4 pH 7.8, 1 mM ATP and 1 mM DTT) was injected to each well, followed by a 50 μl injection of 1 mM Dluciferin potassium salt (BD Pharmingen, San Jose, Calif.); luminescence was measured for 2 sec. Infection of PBMC was done as above, but 20,000-40,000 cells/well and viruses concentrated by ultracentrifugation were used. After four hours of incubation with viruses, the cells were centrifuged at 200×g for 6 minutes at 4° C., resuspended in 100 μl RPMI-PBMC medium and incubated at 37° C. for an additional 36-40 hours (total 40-44 hours). Supernatant was removed after centrifugation at 400×g for 5 minutes and cells were processed to detect luciferase activity, as described above.

[2] = system: F-luc expression in H-Fluc4 cells; assay: Specificity control assay (induced firefly luciferase, H-Fluc4 cells); assay type: cell-based
Method: H-JRFL#1336 (effector) and H-Fluc4 (control) cells were grown in DMEM containing 10% FBS, 100 μg/ml streptomycin, 100 units/ml penicillin, 200 μg/ml G418, 1 μg/ml puromycin and 2 μg/ml doxycycline. H-JRFL#13 cells carry an HIV-1JR-FL env gene that is induced by growing the cells in the absence of doxycycline (Tet-Off expression system). H-Fluc4 cells, which carry a firefly luciferase gene that is induced in the absence of doxycycline, were used as specificity controls. Both cell lines were derived from HeLa cells and constitutively express the tetracycline-regulated transactivator (Tet-Off expression system). […]
H-JRFL#13 or H-FLuc4 cells were washed thrice, detached with StemPro Accutase, centrifuged at 200×g for 6 minutes at 10° C. and seeded in DMEM containing 10% tetracycline-approved FBS, 100 μg/ml streptomycin, 100 units/ml penicillin, 100 μg/ml G418, 1 μg/ml puromycin and without Phenol Red. […] Firefly luciferase activity was measured using an EnVision Multilabel Plate Reader (PerkinElmer, Boston, Mass.). […]
To identify new molecules that potentially affect HIV-1 entry, a cell-cell fusion assay that mimics the entry of HIV-1 into cells was established (FIG. 1a). The assay uses a firefly luciferase (F-luc) readout to measure the fusion of HeLa effector cells that express the Envs from a primary HIV-1 strain and target cells coexpressing the CD4 and CCR5 receptors. […]

[3] = system: CEM #21 cells; assay: Viability assay, CEM#21 target cells; assay type: cell-based
Method: H-JRFL#1336 (effector) and H-Fluc4 (control) cells were grown in DMEM containing 10% FBS, 100 μg/ml streptomycin, 100 units/ml penicillin, 200 μg/ml G418, 1 μg/ml puromycin and 2 μg/ml doxycycline. H-JRFL#13 cells carry an HIV-1JR-FL env gene that is induced by growing the cells in the absence of doxycycline (Tet-Off expression system). H-Fluc4 cells, which carry a firefly luciferase gene that is induced in the absence of doxycycline, were used as specificity controls. Both cell lines were derived from HeLa cells and constitutively express the tetracycline-regulated transactivator (Tet-Off expression system). CEM#21 target cells were grown in RPMI containing 10% FBS, 100 μg/ml streptomycin, 100 units/ml penicillin and 1 μg/ml puromycin. […]
Viability Assay. […] The plate was equilibrated to room temperature, 15 μl of CellTiterGlo (Promega) was added to each well and luminescence was measured as described above. […] 30 μl (Cf2Th cells) or 100 μl (PBMC) of CellTiterGlo was added and luminescence was measured as described above.

[4] = system: HIV-1JR-FL; assay: Washout experiment, HIV-1JR-FL infection; assay type: cell-based; conditions: washing out before infection
Method: For washout experiments, different concentrations of 18A were incubated with the recombinant viruses at 37° C. for 20 minutes. The viruses were laid on a 20% sucrose cushion and ultracentrifuged at 30,000 RPM in an SW55 rotor for 1.5 hours at 4° C. After the supernatant was aspirated, viruses were suspended in 500-1000 μl medium and 90 μl of the virus suspension was used to infect 5000 Cf2Th-CD4/CCR5 cells (5 replicates). The cells were incubated for 48 hours and processed as described above. Sensitivity of recombinant viruses to cold inactivation was measured.

[5] = Env with KB9 gp120 and JR-FL gp41

O=C(N/N=C/c1ccc(O)cc1)Nc1cccc2nsnc12 [Compound 18A]
sensitivity to inhibition ([1]; Env with JR-FL gp120 and KB9 gp41): nearly as sensitive as the parental JR-FL Env
fold more sensitive than parental KB9 Env [1, 5]: 2 fold
fold resistance relative to JR-FL Env [1, 5]: about 5 fold
sensitivity to inhibition ([1]; major variable loops of JR-FL gp120 grafted onto KB9 Env): nearly as sensitive to 18A inhibition as JR-FL
IC50 [2]: 15.1 ± 1.1 µM
CC50 [3]: 26.6 ± 2.1 µM
reversibility of inhibition of HIV-1 infection [4]: reversible

From patent publication US20170298056A1, “SMALL MOLECULE INHIBITORS OF HIV-1 ENTRY AND METHODS OF USE THEREOF” (Dana-Farber Cancer Institute, Inc., priority 2014, published 2017)
